Data on 16 molecules can be found in patent US7572786B2, “Substituted 1-piperidin-3-yl-4-piperidin-4-yl-piperazine derivatives and their use as neurokinin antagonists” (Janssen Pharmaceutica, N.V., priority 2002, dated 2009).

One experiment deals with NK1 (Homo sapiens, UniProt P25103). The experiment can be described thus: Signal transduction (ST), intracellular Ca++ (FLIPR), NK1 antagonism. The note with it: read-out: pIC50 NK1 (converted). In kind it is cell-based. On the procedure:
(§1) This test evaluates in vitro functional NK1 antagonistic activity. For the measurements of intracellular Ca^++ concentrations the cells were grown on 96-well (black wall/transparent bottom) plates from Costar for 2 days until they reached confluence. The cells were loaded with 2 μM Fluo3 in DMEM containing 0.1% BSA and 2.5 mM probenecid for 1 h at 37° C. […] The cells were preincubated with a concentration range of antagonists for 20 min at RT and Ca^++-signals after addition of the agonists were measured in a Fluorescence Image Plate Reader (FLIPR from Molecular Devices, Crawley, England). The peak of the Ca^++-transient was considered as the relevant signal and the mean values of corresponding wells were analysed as described below.
(§2) The sigmoidal dose response curves were analysed by computerised curve-fitting, using the GraphPad Program. […] For antagonist responses the IC50-value was calculated using non-linear regression.

In the next experiment the target is T1, NK3 (Homo sapiens, UniProt P29371).
T1 sequence (P29371 1-465): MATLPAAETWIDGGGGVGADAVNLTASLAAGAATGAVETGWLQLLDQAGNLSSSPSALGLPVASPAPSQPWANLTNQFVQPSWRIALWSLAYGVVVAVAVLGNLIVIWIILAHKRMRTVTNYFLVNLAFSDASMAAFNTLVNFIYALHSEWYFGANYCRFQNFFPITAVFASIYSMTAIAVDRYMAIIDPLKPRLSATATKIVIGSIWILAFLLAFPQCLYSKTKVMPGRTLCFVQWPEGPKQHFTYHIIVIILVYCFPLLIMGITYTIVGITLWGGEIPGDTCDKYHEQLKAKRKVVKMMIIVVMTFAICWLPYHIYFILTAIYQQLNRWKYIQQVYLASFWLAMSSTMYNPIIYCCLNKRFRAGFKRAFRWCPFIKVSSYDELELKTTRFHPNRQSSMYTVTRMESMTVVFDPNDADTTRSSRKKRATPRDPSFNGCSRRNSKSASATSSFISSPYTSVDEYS
The experiment can be described thus: Signal transduction (ST), intracellular Ca++ (FLIPR), NK3. The note with it: read-out: pIC50 NK3 (converted). The experiment is classed as cell-based. As for the experimental part: [The source words this procedure for another target and reports this target under the same test.] as §1, §2

Sequence of NK1 (P25103 whole entry): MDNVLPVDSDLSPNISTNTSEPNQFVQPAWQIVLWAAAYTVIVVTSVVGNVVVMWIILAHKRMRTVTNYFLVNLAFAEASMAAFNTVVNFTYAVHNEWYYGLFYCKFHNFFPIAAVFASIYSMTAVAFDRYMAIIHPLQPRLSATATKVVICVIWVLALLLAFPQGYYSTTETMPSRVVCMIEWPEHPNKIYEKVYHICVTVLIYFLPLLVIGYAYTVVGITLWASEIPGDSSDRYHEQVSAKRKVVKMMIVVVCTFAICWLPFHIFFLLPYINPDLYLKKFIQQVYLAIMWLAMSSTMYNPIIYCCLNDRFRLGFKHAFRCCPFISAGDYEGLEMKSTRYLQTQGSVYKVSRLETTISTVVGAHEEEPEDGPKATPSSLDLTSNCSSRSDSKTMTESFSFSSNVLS

Turning to `O=C(c1cc(C(F)(F)F)cc(C(F)(F)F)c1)N1CC[C@H](N2CCN(C3CCCN(S(=O)(=O)c4ccc(-c5ccccn5)s4)C3)CC2)C[C@H]1Cc1ccccc1` (some centres unmarked) [Compound 34], the IC50 on NK1 is 50.1 nM; on NK3 it was 2000 nM.
As for `Cc1cc(C)cc(C(=O)N2CCCC(N3CCN(C4CCN(C(=O)c5cc(C(F)(F)F)cc(C(F)(F)F)c5)C(Cc5ccccc5)C4)CC3)C2)c1` (centres unmarked) [Compound 3], the figures for the IC50 at NK1 and at NK3 were 79.4 nM and 2000 nM, respectively.
For `Cc1csc(C)c1S(=O)(=O)N1CCCC(N2CCN([C@H]3CCN(C(=O)c4cc(C(F)(F)F)cc(C(F)(F)F)c4)[C@H](Cc4ccccc4)C3)CC2)C1` (some centres unmarked) [Compound 33], in that order: 39.8 nM and 1000 nM.
Regarding `O=C(C1CCOC1)N1CCCC(N2CCCN(C3CCN(C(=O)c4cc(C(F)(F)F)cc(C(F)(F)F)c4)C(Cc4ccccc4)C3)CC2)C1` (single isomer, unassigned) [Compound 121], the IC50 is 126 nM at NK1 and 7940 nM on NK3.
The corresponding values for `O=C(c1cc(C(F)(F)F)cc(C(F)(F)F)c1)N1CC[C@@H](N2CCCN(C3CCCN(S(=O)(=O)c4cccs4)C3)CC2)C[C@H]1Cc1ccccc1` (some centres unmarked) [Compound 120] are 200 nM and 7940 nM.
The corresponding values for `Cc1c(S(=O)(=O)N2CCCC(N3CCN([C@H]4CCN(C(=O)c5cc(C(F)(F)F)cc(C(F)(F)F)c5)[C@H](Cc5ccccc5)C4)CC3)C2)cnn1-c1ccccc1` (some centres unmarked) [Compound 44] are 63.1 nM and 5010 nM.
The corresponding values for `O=C(c1ccoc1)N1CCCC(N2CCCN(C3CCN(C(=O)c4cc(C(F)(F)F)cc(C(F)(F)F)c4)C(Cc4ccccc4)C3)CC2)C1` (single isomer, unassigned) [Compound 116] are 50.1 nM and 3980 nM.
For the molecule `CC(C)S(=O)(=O)N1CCCC(N2CCN([C@H]3CCN(C(=O)c4cc(C(F)(F)F)cc(C(F)(F)F)c4)[C@H](Cc4ccccc4)C3)CC2)C1` (some centres unmarked) [Compound 35], the figures for the IC50 at NK1 and on NK3 were 10 nM and 2000 nM, respectively.
The corresponding values for `COc1ccc(C)cc1S(=O)(=O)N1CCCC(N2CCN([C@H]3CCN(C(=O)c4cc(C(F)(F)F)cc(C(F)(F)F)c4)[C@H](Cc4ccccc4)C3)CC2)C1` (some centres unmarked) [Compound 31] are 25.1 nM and 3160 nM.
For `O=C(C(=O)N1CCCC(N2CCN(C3CCN(C(=O)c4cc(C(F)(F)F)cc(C(F)(F)F)c4)C(Cc4ccccc4)C3)CC2)C1)c1ccco1` (centres unmarked) [Compound 24], in that order: 25.1 nM and 3980 nM.
Regarding `O=C(c1cc(C(F)(F)F)cc(C(F)(F)F)c1)N1CC[C@H](N2CCN(C3CCCN(S(=O)(=O)c4ccccc4Cl)C3)CC2)C[C@H]1Cc1ccccc1` (some centres unmarked) [Compound 27], the IC50 was 20 nM on NK1 and 1260 nM at NK3.
The corresponding values for `O=C(C1CCOC1)N1CCCC(N2CCCN(C3CCN(C(=O)c4cc(C(F)(F)F)cc(C(F)(F)F)c4)C(Cc4ccccc4)C3)CC2)C1` (single isomer, unassigned) [Compound 115] are 39.8 nM and 6310 nM.
The corresponding values for `O=C(c1ccccc1)N1CCCC(N2CCN([C@H]3CCN(C(=O)c4cc(C(F)(F)F)cc(C(F)(F)F)c4)[C@H](Cc4ccccc4)C3)CC2)C1` (some centres unmarked) [Compound 8] are 20 nM and 251 nM.
Regarding `COc1ccc(S(=O)(=O)N2CCCC(N3CCN([C@H]4CCN(C(=O)c5cc(C(F)(F)F)cc(C(F)(F)F)c5)[C@H](Cc5ccccc5)C4)CC3)C2)cc1F` (some centres unmarked) [Compound 7], the IC50 at NK1 is 50.1 nM; on NK3, 1000 nM.
For `O=C(c1ccoc1)N1CCCC(N2CCN(C3CCN(C(=O)c4cc(C(F)(F)F)cc(C(F)(F)F)c4)C(Cc4ccccc4)C3)CC2)C1` (centres unmarked) [Compound 17], in that order: 31.6 nM and 2510 nM.
The corresponding values for `O=C(c1cc(C(F)(F)F)cc(C(F)(F)F)c1)N1CC[C@H](N2CCN(C3CCCN(S(=O)(=O)c4ccc(O)c(F)c4)C3)CC2)C[C@H]1Cc1ccccc1` (some centres unmarked) [Compound 107] are 15.8 nM and 1260 nM.
